These results are taken from patent publication EP2193713A1, “Method for fighting animal pests without damaging pollinating insects” (Bayer CropScience AG, priority 2008, dated 2010).

The data set deals with Apis mellifera. The data set can be described thus: Tunnel test / spray application / bees: acute mortality of pupae in front of the hive. It counts as in vivo. From the text:
Der Test wurde gemäß EPPO (European Plant Protection Organisation) Leitlinie 170 wie folgt durchgeführt:
Tabelle 2 (siehe auch Figur 2)

Regarding `O=C1C=C(N(Cc2ccc(Cl)nc2)CC(F)F)CO1` [I-5, 4-{[(6-Chlorpyrid-3-yl)methyl](2,2-difluorethyl)amino}furan-2(5H)-on], the “Zahl toter Puppen” value by setting is: (75 g a.s./ha, 0 DAA c (17:15 Uhr)) 0; (75 g a.s./ha, 1 DAA) 0; (75 g a.s./ha, 2 DAA) 0,3; (75 g a.s./ha, 5 DAA) 0; (75 g a.s./ha, 6 DAA) 0; (75 g a.s./ha, 11 DAA) 0,3. Also, the “Zahl toter Puppen” value is on record as 0 (75 g a.s./ha, 14 DAA); 0 (75 g a.s./ha, 18 DAA); 0 (75 g a.s./ha, 21 DAA); 0 (75 g a.s./ha, 25 DAA); 0 (75 g a.s./ha, -3 DAA (before application)); 0 (150 g a.s./ha, 0 DAA c (17:15 Uhr)). Moreover, the “Zahl toter Puppen” value runs as follows: (150 g a.s./ha, 1 DAA) 0; (150 g a.s./ha, 2 DAA) 0; (150 g a.s./ha, 5 DAA) 0; (150 g a.s./ha, 6 DAA) 0; (150 g a.s./ha, 11 DAA) 0; (150 g a.s./ha, 14 DAA) 0,7. Besides, the “Zahl toter Puppen” value reads like this: (150 g a.s./ha, 18 DAA) 0; (150 g a.s./ha, 21 DAA) 0; (150 g a.s./ha, 25 DAA) 0; (150 g a.s./ha, -3 DAA (before application)) 0. Besides, the “Mortalität von Puppen vor dem Bienenstock” value (result in words, tunnel test, spray, I-5 75 und 150 g a.s./ha, Fenoxycarb 150 g a.s./ha) is “keine Mortalität”.
